Active and inactive are the calls of the source. The calls are words filed in the database; no cut-off is given here.
Legend:
[1] = target: Indoleamine 2,3-dioxygenase 1 (Homo sapiens, UniProt P14902); assay: Competitive inhibition of human indoleamine 2,3-dioxygenase assessed as conversion of N-formylkynurenine to kynurenine after 2 hrs by spectrophotometrical analysis
[2] = Antiproliferative activity against human NSC-24 cells at 34.2 ug/ml to 100 uM by WST-1 assay; assay type: cell-based
[3] = test system: TG1; assay: Induction of Erk phosphorylation in human TG1 cells at 100 uM after 30 mins by Western blot analysis; assay type: cell-based
[4] = test system: NSC-24; assay: Inhibition of Erk phosphorylation in human NSC-24 cells at 100 uM after 30 mins by Western blot analysis; assay type: cell-based
[5] = Antiproliferative activity against human TG10 cells at 34.2 ug/ml by WST-1 assay; assay type: functional
[6] = Antiproliferative activity against human TG1 cells at 34.2 ug/ml by WST-1 assay; assay type: functional

Sequence of Indoleamine 2,3-dioxygenase 1 (P14902 whole entry): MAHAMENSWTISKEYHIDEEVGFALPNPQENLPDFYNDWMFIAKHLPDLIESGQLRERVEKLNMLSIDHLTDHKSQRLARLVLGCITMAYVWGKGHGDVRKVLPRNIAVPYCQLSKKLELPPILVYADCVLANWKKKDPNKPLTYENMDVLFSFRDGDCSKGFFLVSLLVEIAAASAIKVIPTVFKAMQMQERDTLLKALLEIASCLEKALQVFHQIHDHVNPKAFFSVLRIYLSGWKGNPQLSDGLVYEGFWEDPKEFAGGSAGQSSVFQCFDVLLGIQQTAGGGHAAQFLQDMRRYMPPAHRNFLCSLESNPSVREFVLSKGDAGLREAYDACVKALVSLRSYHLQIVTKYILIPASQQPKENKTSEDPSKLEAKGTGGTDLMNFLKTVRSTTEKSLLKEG

Ki [1]: 635 µM
Compound: COc1c2c(c3ccc(=O)oc3c1/C=C/C(C)(C)O)OC(C)(C)C=C2 [AVICENNOL]
Activity [2]: Non-toxic | Activity [3]: Active | inhibition [4]: Active | Activity [5]: 40% | Activity [6]: 35%

Source: ChEMBL document CHEMBL2010739, “Antiproliferative activity of trans-avicennol from Zanthoxylum chiloperone var. angustifolium against human cancer stem cells” (J Nat Prod, 2012)
